Active and inactive are the calls of the source. The calls are words filed in the database; no cut-off is given here.

Usually IC50 stands for the concentration at which inhibition is half-maximal. The AUC(0-t) is the area under the concentration-time curve up to a stated or last time point. By AUC is commonly meant concentration integrated over time. As a reminder, the Inhibition is the percentage by which the read-out fell short of the control.

Data set [1] addresses T1, Proteinase-activated receptor 1 (Homo sapiens, UniProt P25116).
T1 sequence (P25116 whole entry): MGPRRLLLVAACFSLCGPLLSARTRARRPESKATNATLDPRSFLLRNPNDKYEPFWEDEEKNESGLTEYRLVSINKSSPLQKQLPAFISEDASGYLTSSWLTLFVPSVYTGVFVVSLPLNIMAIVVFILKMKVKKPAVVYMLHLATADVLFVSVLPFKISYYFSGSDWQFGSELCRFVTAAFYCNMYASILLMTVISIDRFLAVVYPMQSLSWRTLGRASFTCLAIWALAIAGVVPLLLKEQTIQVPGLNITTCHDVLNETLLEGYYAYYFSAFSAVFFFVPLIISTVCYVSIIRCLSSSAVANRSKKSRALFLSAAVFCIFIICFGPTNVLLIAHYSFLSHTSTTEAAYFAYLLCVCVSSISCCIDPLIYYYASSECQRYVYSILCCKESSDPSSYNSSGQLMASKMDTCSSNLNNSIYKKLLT
Put plainly: Displacement of [3H]haTRAP from PAR1. A general note: Displacement assays read how much labelled ligand stays bound in the presence of the test substance.

The nature of data set [2]: AUC (0 to 6 hrs) in rat. The settings on record: plasma. Set-up: time < 6 hr; concentration or dose not given beside the values. The class given is ADME, organism-based.
Data set [3] in a line: AUC in cynomolgus monkey at 3 mg/kg, po. It is filed as ADME, organism-based, Macaca fascicularis. Set-up: dose 3 mg/kg, route oral. The settings on record: plasma.
Data set [4] can be described thus: AUC (0 to 24 hrs) in cynomolgus monkey at 1 mg/kg, po. The class given is ADME, organism-based, Macaca fascicularis. Set-up: time < 24 hr, dose 1 mg/kg, route oral. Conditions: plasma.
In data set [5] the test system is Cynomolgus monkey. Put plainly: Inhibition of platelet aggregation in cynomolgus monkey at 2 mg/kg, po after 24 hrs. Conditions: Macaca fascicularis. It is filed as functional, organism-based. Details: dose 2 mg/kg.
The test system of data set [6] is Proteinase-activated receptor 1 (Homo sapiens). Put plainly: Dissociation half-life from PAR-1 receptor.
For data set [7], the system named is Cynomolgus monkey. Put plainly: Inhibition of platelet aggregation in cynomolgus monkey at 3 mg/kg, po upto 5 hrs. It is filed as functional, organism-based. Details: dose 3 mg/kg. The settings on record: Macaca fascicularis.
For data set [8], the system named is Cynomolgus monkey. Put plainly: Inhibition of platelet aggregation in cynomolgus monkey after 24 hrs. The class given is functional, Macaca fascicularis.
Data set [9] relates to Cynomolgus monkey. Put plainly: Inhibition of platelet aggregation in cynomolgus monkey at 3 mg/kg, po. It is filed as functional, organism-based. Set-up: dose 3 mg/kg. Conditions: Macaca fascicularis.

As for `O=C1OC[C@H]2[C@@H]1Cc1c(F)cccc1[C@@H]2/C=C/c1ccc(-c2cccc(F)c2)cn1`, in data set [1], the concentration for half-maximal inhibition (IC50) was 20.5 nM. In data set [2], this compound displayed an AUC(0-t) at 6 h of 4590 ng·h/mL.
On to `O=C1OC[C@H]2[C@@H]1Cc1ccccc1[C@@H]2/C=C/c1ccc(-c2cccc(F)c2)cn1`, for which the AUC in data set [3] was under 300 ng·h/mL. In addition, in [1], the IC50 was 7.5 nM.
In data set [1], `O=C1OC[C@H]2[C@@H]1Cc1c(F)cc(F)cc1[C@@H]2/C=C/c1ccc(-c2cccc(C(F)(F)F)c2)cn1` showed an IC50 of 21.5 nM.
`O=C1OC[C@H]2[C@@H]1Cc1c(F)cc(F)cc1[C@@H]2/C=C/c1ccc(-c2cccc(Cl)c2)cn1` (racemic) returned a half-inhibitory concentration (IC50) in [1] of 46.5 nM.
Compound `O=C1OC[C@H]2[C@@H]1Cc1cccc(F)c1[C@@H]2/C=C/c1ccc(-c2cccc(Cl)c2)cn1` (racemic) had an IC50 in [1] of 330 nM.
The same measure, in the same setting: in the case of `O=C1OC[C@H]2[C@@H]1Cc1ccc(F)cc1[C@@H]2/C=C/c1ccc(-c2cccc(C(F)(F)F)c2)cn1` it was 31.5 nM; in that of `O=C1OC[C@H]2[C@@H]1Cc1ccc(Cl)cc1[C@@H]2/C=C/c1ccc(-c2cccc(F)c2)cn1`, 14.5 nM.
As for `O=C1OC[C@H]2[C@@H]1Cc1ccc(Cl)cc1[C@@H]2/C=C/c1ccc(-c2cccc(Cl)c2)cn1` (racemic), the IC50 in data set [1] was 120 nM.
Same read-out and setting: then `O=C1OC[C@H]2[C@@H]1Cc1c(ccc(F)c1F)[C@@H]2/C=C/c1ccc(-c2cccc(F)c2)cn1`, with 7 nM.
As for `O=C1OC[C@H]2[C@@H]1Cc1cc(F)ccc1[C@@H]2/C=C/c1ccc(-c2cccc(F)c2)cn1`, in [4], the AUC(0-t) at 24 h was determined as 6200 ng·h/mL. The 50% inhibitory concentration (IC50) in data set [1] came to 7.6 nM. For the same compound, the result in the data set on Cynomolgus monkey [5] was Active. In addition, the dissociation half-life in [6] is 2.32 h. This compound gave an AUC(0-t) at 6 h in data set [2] of 3960 ng·h/mL.
As to `O=C1OC[C@H]2[C@@H]1Cc1ccccc1[C@@H]2/C=C/c1ccc(-c2cccc(Cl)c2)cn1`, the AUC in data set [3] worked out at 6300 ng·h/mL. For the same compound, the concentration for half-maximal inhibition (IC50) in data set [1] was 14.5 nM. For the same compound, the outcome in the data set on Cynomolgus monkey [7] was Active.
As for `COc1ccc2nc(/C=C/[C@@H]3c4ccccc4C[C@H]4C(=O)OC[C@@H]34)ccc2c1` (racemic), the IC50 in data set [1] was determined as 12.5 nM.
Consider `O=C1OC[C@H]2[C@H](/C=C/c3ccccn3)c3ccccc3C[C@@H]12`, for which the IC50 in data set [1] was determined as 12000 nM.
`O=C1OC[C@H]2[C@@H]1Cc1ccc(F)cc1[C@@H]2/C=C/c1ccc(-c2cccc(F)c2)cn1` displayed an IC50 in data set [1] of 10 nM. The compound further came in with an AUC(0-t) at 6 h in [2] of 5050 ng·h/mL.
`O=C1OC[C@H]2[C@@H]1Cc1cc(F)ccc1[C@@H]2/C=C/c1ccc(-c2cccc(Cl)c2)cn1` came in with an Inhibition in the data set with Cynomolgus monkey [8] of 60%. The compound further returned an IC50 in data set [1] of 13 nM. For the same compound, in [2], the area under the curve AUC(0-t) at 6 h was found to be 3700 ng·h/mL.
Regarding `O=C1OC[C@H]2[C@@H]1Cc1c(Cl)cccc1[C@@H]2/C=C/c1ccc(-c2cccc(C(F)(F)F)c2)cn1` (racemic), the half-inhibitory concentration (IC50) in data set [1] was determined as 225 nM.
In data set [1], `O=C1OC[C@H]2[C@@H]1Cc1c(ccc(F)c1F)[C@@H]2/C=C/c1ccc(-c2cccc(Cl)c2)cn1` came in with a half-maximal inhibitory concentration (IC50) of 15.5 nM. Further, the area under the curve AUC(0-t) at 6 h in data set [2] amounted to 264 ng·h/mL. In addition, the outcome in the data set with Cynomolgus monkey [9] was inactive.
In turn, `COc1ccc2nc(/C=C/[C@@H]3c4ccccc4C[C@H]4C(=O)O[C@@H](C)[C@@H]34)ccc2c1` yielded a concentration for half-maximal inhibition (IC50) in data set [1] of 3140 nM.
In turn, `O=C1OC[C@H]2[C@@H]1Cc1ccc(Cl)cc1[C@@H]2/C=C/c1ccc(-c2cccc(C(F)(F)F)c2)cn1` (racemic) yielded an IC50 in [1] of 138 nM.
Same read-out and setting: in the case of `COc1ccc2nc(/C=C/[C@H]3c4ccccc4C[C@@H]4C(=O)O[C@@H](C)[C@@H]43)ccc2c1` it was 9170 nM.
Same read-out and setting: then `O=C1OC[C@H]2[C@@H]1Cc1c(Cl)cccc1[C@@H]2/C=C/c1ccc(-c2cccc(Cl)c2)cn1` (racemic), with 328 nM.
Consider `O=C1OC[C@H]2[C@@H]1Cc1cccc(F)c1[C@@H]2/C=C/c1ccc(-c2cccc(F)c2)cn1` (racemic), for which the half-inhibitory concentration (IC50) in data set [1] was 85.5 nM.
In turn, `O=C1OC[C@H]2[C@@H]1Cc1c(F)cccc1[C@@H]2/C=C/c1ccc(-c2cccc(C(F)(F)F)c2)cn1` (racemic) returned an IC50 in data set [1] of 65 nM.
In turn, `COc1ccc2nc(/C=C/[C@@H]3c4ccccc4C[C@H]4C(=O)O[C@H](C)[C@@H]34)ccc2c1` came in with an IC50 in [1] of 580 nM.
On to `COc1ccc2nc(/C=C/[C@@H]3c4ccccc4C[C@H]4C(=O)OC(C)(C)[C@@H]34)ccc2c1` (racemic), for which, in data set [1], the 50% inhibitory concentration (IC50) was 225 nM.
Consider `COc1ccc2nc(/C=C/[C@H]3c4ccccc4C[C@@H]4C(=O)O[C@H](C)[C@@H]43)ccc2c1`, for which, in data set [1], the IC50 was found to be 90 nM.
Compound `O=C1OC[C@H]2[C@@H]1Cc1ccc(F)cc1[C@@H]2/C=C/c1ccc(-c2cccc(Cl)c2)cn1` displayed an IC50 in data set [1] of 10 nM. Moreover, the AUC(0-t) at 6 h in [2] stood at 6720 ng·h/mL.
In [1], `O=C1OC[C@H]2[C@@H]1Cc1c(Cl)cccc1[C@@H]2/C=C/c1ccc(-c2cccc(F)c2)cn1` (racemic) gave a concentration for half-maximal inhibition (IC50) of 63.5 nM.
As for `O=C1OC[C@H]2[C@@H]1Cc1ccccc1[C@@H]2/C=C/c1ccc(-c2cccc(C(F)(F)F)c2)cn1`, the exposure (AUC) in data set [3] was under 300 ng·h/mL. Besides, in data set [1], the 50% inhibitory concentration (IC50) amounted to 10 nM.
In [1], `O=C1OC[C@H]2[C@@H]1Cc1c(F)cccc1[C@@H]2/C=C/c1ccc(-c2cccc(Cl)c2)cn1` returned an IC50 of 29 nM.

The values are drawn from ChEMBL document CHEMBL1148878, “Himbacine derived thrombin receptor antagonists: discovery of a new tricyclic core” (Bioorg Med Chem Lett, 2007).
